Here are results for four compounds from patent US20170014455A1, “INDUCING BROWN FAT FATE AND FUNCTION” (The J. David Gladstone Instiutes, a testamentary trust …, priority 2014, published 2017).

The subject of assay [1] is primary brown pre-adipocytes (pre-BAT). Description: Differentiation of primary brown pre-adipocytes. The assay is classed as cell-based. The method, then:
(§1) C2C12, 3T3-L1 and C3H10T1/2 cells were purchased from ATCC. Primary brown pre-adipocytes were kindly donated by Prof. C. Ronald Kahn (Harvard University). Primary myoblasts were purified from mouse limb muscles and cultured in growth medium (F10+20% FBS+5 ng/ml bFGF) in Matrigel-coated plates (Xiao et al., Cell Res 21, 350-364 (2011)). Adipocyte differentiation was induced by treating cells for 2 days in basal adipogenesis medium (AM) (850 nM insulin, 1 nM T3, 0.5 mM isobuylmethylxanthine, […] indomethacin, 5 μM dexamethasone in10% FBS DMEM). Then cells were switched to 10% FBS DMEM containing 850 nM insulin and 1 nM T3 for another 4-6 days. To stimulate thermogenesis, cells were stimulated with 10 μM forskolin for 4 h.
(§2) Total RNA from cell lines were purified using Qiagen kit, and total RNA from mouse tissues was extracted using Trizol. Complementary DNA was prepared from total RNA with the iScript DNA synthesis kit (Bio-Rad). Quantitative PCR reactions contained SYBR-Green fluorescent dye (ABI). RT-PCR was also used to confirm some gene expression. Relative mRNA expression was determined by the ΔΔ-Ct method with GAPDH as an endogenous control.
Primary brown pre-adipocytes cells efficiently differentiated into brown adipose tissue in the conventional adipogenesis medium.

Assay [2] concerns 3T3-L1 white pre-adipocytes. Description: Differentiation and gene expression of 3T3-L1 white pre-adipocytes under brown adipogenic conditions. The assay is classed as cell-based. The method, then:
(§3) C2C12, 3T3-L1 and C3H10T1/2 cells were purchased from ATCC. Primary brown pre-adipocytes were kindly donated by Prof. C. Ronald Kahn (Harvard University). […] Then cells were switched to 10% FBS DMEM containing 850 nM insulin and 1 nM T3 for another 4-6 days. To stimulate thermogenesis, cells were stimulated with 10 μM forskolin for 4 h.
as §2

Another assay deals with C2C12 myoblast cell line. Description: Adipogenesis of C2C12 myoblasts, Oil-red-O staining of lipid droplets (high-throughput phenotypic screen and follow-up). It counts as cell-based, mouse. The method, then:
as §1
To identify small molecules that mimic the BAT-inducing activity of Prdm16, a high-throughput phenotypic screen of 20,000 compounds was performed using the C2C12 myoblast cell line with lipid droplets stained by Oil-red-O (ORO) as readout (FIG. 1A). […] In the basal adipogenesis medium (AM), no adipocyte-like cells could be induced from C2C12 myoblasts.

The subject of assay [3] is C3H10T1/2 mesenchymal cells. The assay can be described thus: Adipogenic induction and gene expression in C3H10T1/2 mesenchymal cells. The assay is classed as cell-based. The method, then:
as §3, §2

The next assay relates to C3H10T1/2 cells. Description: Ciclopirox and IOX2 gene expression in C3H10T1/2 cells. It counts as cell-based. The conditions noted are these: 0.1 μM to 50 μM. The method, then: as §1, §2
C3H10T1/2 cells were incubated in concentrations of ciclopirox and IOX2 that varied from 0.1 μM to 50 μM. Gene expression levels of genes correlated with the brown adipose tissue phenotype was measured using procedures described in Example 1.

A short description of assay [4]: Oral bexarotene in chow-fed mice: body weight, indirect calorimetry, fat depots, tissue qPCR. It counts as in vivo, C57BL/6N mice. The note with it: 50 mg/kg/day oral, 4 weeks. The method, then: as §2
C57BL/6N mice were fed ad libitum a standard laboratory chow diet (LabDiet 5053, LabDiet, Purina Mills, Richmond, Ind.). Animals were housed under 12-hour light-dark cycles with controlled temperature (23±1° C.). […] All animal experiments were conducted in accordance with the institutional Guidelines for humane treatment of laboratory animals of HKU Animal Care and Use Committee.
Whole-body oxygen consumption was measured using an open circuit indirect calorimetry system with automatic temperature and light controls (Columbus Instruments). Mice had access ad libitum to chow and water in respiration chambers, and data were recorded for a 48 h period […] acclimatized for 24 h.
In general terms: Real-time PCR tracks product formation cycle by cycle.

In assay [5] the test system is C2C12 cells. The note with it: 2-day treatment. The method, then: Mouse genome-wide gene expression analyses were performed using Affymetrix Mouse Gene 1.0 ST Array. […] Microarray analyses were performed in duplicate from independent biologic samples, according to the standard Affymetrix Genechip protocol. Data were normalized and analyzed using Affymetrix Expression Console and Transcriptome Analysis Console (TAC) software. […] The differential expression gene list was further analyzed in DAVID GO functional annotation and GO-Elite (Zambon et al., Bioinformatics 28: 2209-2210 (2012)).

Assay [6] can be described thus: Bexarotene in high fat diet mice: body weight, fat weights, GTT, ITT. It counts as in vivo, C57BL/6J mice. The note with it: 50 mg/kg daily i.p., high fat diet 4 weeks. The method, then: Male mice (8-week-old, C57BL/6J) were housed in metabolism cages and maintained on a 12 h light-dark cycle at 23° C. The mice were fed a high fat diet (HFD) (21.9 kJ/g, 60% of energy as fat, 20% of energy as protein, 20% of energy as carbohydrate; D12492; Research Diet, New Brunswick, N.J., USA) for four weeks.
Glucose and insulin tolerance tests were performed on the mice at the end of the four week dosing period. Mice were fasted overnight and injected intraperitoneally (i.p.) with 20% glucose at a dose of 2 g/kg body weight for glucose tolerance tests (GTTs). For insulin tolerance tests (ITTs), mice were starved for 6 h and i.p. injected with 0.5 U/kg body weight of recombinant human insulin (Eli Lilly). Blood glucose was monitored from the tail vein blood using a glucometer (ACCU-CHEK Advantage; Roche Diagnostics China, Shanghai, China) at various time points. Mouse body weight, subcutaneous (inguinal fat; SubQ fat), and epididymal adipose tissue weight (epidi weight) were also determined at the end of the 4 week test.

The test system of the next assay is primary myoblasts. The assay can be described thus: Bexarotene with PRDM16 overexpression in primary myoblasts. It counts as cell-based, mouse. The method, then: as §1, §2
The subject of assay [7] is C2C12 cells. The assay can be described thus: Real-time PCR gene expression in C2C12 cells during adipogenesis. The assay is classed as cell-based, mouse. The method, then: as §1, §2
In assay [8] the test system is primary mouse embryonic fibroblast (MEF) cells. Description: Adipogenesis and gene expression in primary mouse embryonic fibroblasts. The assay is classed as cell-based.
Assay [9] relates to C2C12 cells over-expressing RXRα, RXRβ or RXRγ. Description: Bexarotene in C2C12 cells overexpressing RXRα, RXRβ or RXRγ. The assay is classed as cell-based, mouse. The method, then:
as §1
Mouse retinoid X receptor-alpha (RXRα) and retinoid X receptor-gamma (RXRγ) plasmids were from Dr. Ronald Evans (Salk Institute) and mouse RXRβ plasmid was purchased from Origene. These three RXR fragments were subcloned into pMXs vectors to generate a retrovirus construct (Yamanaka lab, Gladstone Institutes). Non-target shRNA(shNT), shRXRα, shRXRβ, and shRXRγ lentivirus constructs were purchased from Sigma-Aldrich. Retrovirus and lentivirus constructs were packaged in Plat E and 293T cells, respectively.
as §2
To further characterize the role of retinoid receptors, the RXRα, RXRβ and RXRγ subtype receptors were overexpressed in C2C12 cells.

[10] abbreviates: brown adipogenic differentiation conditions.

Regarding `CN1c2ccc([N+](=O)[O-])cc2N=C(c2ccc(C(=O)O)cc2)c2cc3c(cc21)C(C)(C)CCC3(C)C` [HX531], the “Bex-induced BAT differentiation” value in [1] (with bexarotene) is given as “reduced”. In addition, the “white adipose tissue adipogenesis” value in assay [2] and in assay [3] was “promoted” in each case. In addition, the “bexarotene-induced brown adipogenic induction” value in the assay on C2C12 myoblast cell line (with bexarotene, first 2 days, 10 μM each) was “completely abolished”.
For `O=C(O)CNC(=O)c1c(O)c2ccccc2n(Cc2ccccc2)c1=O` [IOX2], in the assay on C3H10T1/2 cells, the “expression of PPARγ and several brown adipocyte-specific genes” value was “significantly induced”; the “response of BAT-like adipocytes to forskolin (Ucp1, Pgc1α)” value is “readily responded to forskolin”.
`C=C(c1ccc(C(=O)O)cc1)c1cc2c(cc1C)C(C)(C)CCC2(C)C` [bexarotene]: in assay [4] (qPCR), the “Ucp1 expression in subcutaneous white adipose tissue (subWAT)” value is reported as “significantly induced although to a lesser extent” and the “thermogenic gene expression (Ucp1, Pgc1α) in brown adipose tissue” value is reported as “marked augmentation”. In assay [4] (vs control), the “interscapular brown adipose tissue mass (absolute and portion of body weight)” value is given as “increased significantly”; the “lipid droplets in brown adipose tissue (H&E)” value is reported as “similar, if not smaller”; the “white adipose tissue depots (subWAT, epiWAT) mass” value was “no statistically significant change”. Further, in [4] (vs saline), the body weight gain entry is given as “smaller gain in body weight”, the “carbon dioxide release (VCO2)” value was “released more CO2”, the “oxygen consumption (VO2)” value was “consumed more oxygen” and the physical activity result was “without changes in physical activity”. Also, the “total energy expenditure (heat generation)” value in assay [4] (vs saline) is recorded as “significantly more total energy was expended”. In addition, the “expression of PPARγ and BAT-associated genes incl. Prdm16 and Pgc1α” value in assay [1] was “higher levels of expression”. The “induction of Ucp1 and Pgc1α expression in response to forskolin” value in assay [1] (differentiated BAT adipocytes) was “potentiated”. Besides, the “response to forskolin stimulation” value in [2] was “more robust response”. Moreover, in [2] (setting [10]), the “BAT features (small lipid droplets, Ucp1 expression)” value was “induced”; the “white adipose tissue differentiation and PPARγ expression” value is on record as “significantly suppressed”. Further, in the assay with C2C12 cells [5], the “expression of browning genes Fgf21, Pgc1α, Ppargc1a, Acsl1, Tbx15, Ptgs2, G0S2” value was “increased expression”; the “white adipogenesis-associated genes Bmp4 and Egr2” value is listed as “repressed”. For the same compound, in assay [6], the glucose tolerance test result was “improved glucose homeostasis” and the insulin tolerance test entry is recorded as “responded to insulin more sensitively”. In [6] (vs control), the body weight result was “lower body weight”, the epididymal adipose tissue result is given as “less epididymal adipose tissue” and the “subcutaneous (inguinal) fat” value is “less subcutaneous fat”. Also, in the assay on primary myoblasts (Prdm16 overexpression), the “potentiation of Prdm16 overexpression-induced Ucp1 expression” value was “more than fourfold”. In addition, the lipid droplet size entry with primary myoblasts (added to PRDM16 overexpression vs PRDM16 overexpression alone) is on record as “much smaller lipid droplets”. In addition, the “levels of PPARγ, Fabp4, CD36 and RXR/PPARγ targets Pex11a, Angpt14, HK2” value in the assay on C2C12 cells [7] (Day 2, qPCR confirmation) is reported as “significantly increased”. In the assay on C2C12 cells [7] (adipogenesis medium, qPCR Day 6), the “expression of PPARγ, Prdm16 and Pgc1α” value was “significantly induced”. In the assay with C2C12 cells [7] (forskolin stimulation 4 h), the “response of induced BAT-like adipocytes to forskolin (Ucp1, Pgc1α)” value is reported as “readily responded to forskolin”. In assay [8], the “brown phenotype / browning” value was “induced a strong brown phenotype” and the white adipogenic phenotype result is reported as “apparently suppressing”. In assay [8] (even without forskolin stimulation), the Ucp1 expression entry is “induced in a dose-dependent manner”. In addition, the adipogenic reprogramming entry in the assay with C2C12 myoblast cell line (added for 2 days in basal adipogenesis medium) is reported as “dramatically initiated adipogenic reprogramming in C2C12 cells in a dose-dependent manner”. Moreover, in the assay with C2C12 myoblast cell line (high-throughput screen of 20,000 compounds), the “appearance of lipid droplets (Oil-red-O)” value is recorded as “led to the appearance of lipid droplets”. Moreover, in assay [3], the “induction of Ucp1 and Pgc1α expression compared with cPGI2” value is reported as “much greater than that of the COX-2 agonist cPGI2”. The “brown phenotype (thermogenic gene expression to forskolin stimulation)” value in assay [3] (2 days at the beginning of adipogenic induction) was “induced the brown phenotype”. Further, the “small multilocular lipid droplets and BAT-specific genes Ucp1, Prdm16, PPARα, Pgc1α, Cox7a1, Cox8b” value in [3] (RXRα or RXRγ overexpression, adipogenic induction) is “induced”. Besides, the “cells reprogrammed to brown adipose-like cells with multilocular lipid droplets” value in [9] (RXRα or RXRγ overexpression) is reported as “nearly all cells”. In addition, the “Prdm16 and Ucp1 expression at early stage” value in assay [9] (RXRα-overexpressed C2C12 cells, before typical adipocytes appeared) was “induced Prdm16 expression and even more dramatically induced Ucp1 expression”. Also, the “myogenic genes Myf5, MyoD, MyoG and MHCβ” value in [9] (bexarotene/RXR reprogrammed cells) is reported as “dramatically attenuated”. Besides, the “Ucp1 expression response to forskolin” value in assay [9] (bexarotene/RXR-induced BAT-like cells) was “robustly responded”.
As to `Cc1cc(C2CCCCC2)n(O)c(=O)c1` [ciclopirox], in the assay on C3H10T1/2 cells, the “expression of PPARγ and several brown adipocyte-specific genes” value is reported as “significantly induced”; the “response of BAT-like adipocytes to forskolin (Ucp1, Pgc1α)” value is “readily responded to forskolin”.
